Experiment [1] addresses Macrophage-stimulating protein receptor (Homo sapiens) (UniProt Q04912). Kind of experiment: Inhibition of MST1R (unknown origin) assessed as remaining activity at 1 uM by Kinome scan method relative to control.
In experiment [2] the target is T1, Tyrosine-protein kinase Tec (Homo sapiens) (UniProt P42680).
T1 sequence (whole entry): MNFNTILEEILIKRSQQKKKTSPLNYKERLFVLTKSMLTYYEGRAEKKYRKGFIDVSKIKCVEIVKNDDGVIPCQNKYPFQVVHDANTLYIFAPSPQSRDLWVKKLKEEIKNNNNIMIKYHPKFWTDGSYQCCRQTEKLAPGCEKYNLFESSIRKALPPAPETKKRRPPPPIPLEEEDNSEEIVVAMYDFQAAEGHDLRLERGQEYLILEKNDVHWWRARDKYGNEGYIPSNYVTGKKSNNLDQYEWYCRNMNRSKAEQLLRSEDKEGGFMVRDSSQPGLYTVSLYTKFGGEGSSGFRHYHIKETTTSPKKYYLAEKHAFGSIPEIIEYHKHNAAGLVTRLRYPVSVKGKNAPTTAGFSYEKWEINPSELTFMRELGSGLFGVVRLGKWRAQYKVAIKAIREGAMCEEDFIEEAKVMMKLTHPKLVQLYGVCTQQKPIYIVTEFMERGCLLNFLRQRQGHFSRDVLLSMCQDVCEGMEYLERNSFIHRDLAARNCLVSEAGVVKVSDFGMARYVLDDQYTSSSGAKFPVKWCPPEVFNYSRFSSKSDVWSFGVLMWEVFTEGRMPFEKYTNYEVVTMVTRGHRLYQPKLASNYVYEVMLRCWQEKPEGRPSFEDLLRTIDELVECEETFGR
Kind of experiment: Inhibition of TEC (unknown origin) assessed as remaining activity at 1 uM by Kinome scan method relative to control.

The target of experiment [3] is T2, Tyrosine-protein kinase ITK/TSK (Homo sapiens) (UniProt Q08881).
T2 sequence (whole entry): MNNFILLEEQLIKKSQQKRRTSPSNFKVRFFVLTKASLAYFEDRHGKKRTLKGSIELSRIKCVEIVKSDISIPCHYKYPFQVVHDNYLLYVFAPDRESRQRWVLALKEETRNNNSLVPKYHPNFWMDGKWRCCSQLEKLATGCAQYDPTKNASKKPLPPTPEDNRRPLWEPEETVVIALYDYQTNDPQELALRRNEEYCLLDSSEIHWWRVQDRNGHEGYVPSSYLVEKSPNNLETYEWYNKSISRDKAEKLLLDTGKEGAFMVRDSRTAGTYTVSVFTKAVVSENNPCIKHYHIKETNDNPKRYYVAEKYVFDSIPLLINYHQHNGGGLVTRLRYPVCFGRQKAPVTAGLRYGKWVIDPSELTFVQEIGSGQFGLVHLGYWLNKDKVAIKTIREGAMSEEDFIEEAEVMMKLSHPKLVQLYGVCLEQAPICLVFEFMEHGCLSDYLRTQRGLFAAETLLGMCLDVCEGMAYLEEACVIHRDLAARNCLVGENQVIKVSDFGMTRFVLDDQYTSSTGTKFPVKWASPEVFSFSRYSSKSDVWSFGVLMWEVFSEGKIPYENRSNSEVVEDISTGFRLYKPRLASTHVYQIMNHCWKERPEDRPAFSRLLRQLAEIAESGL
Kind of experiment: Inhibition of ITK (unknown origin) assessed as remaining activity at 1 uM by Kinome scan method relative to control.

Experiment [4] has as its target Death-associated protein kinase 2 (Homo sapiens) (UniProt Q9UIK4). Kind of experiment: Inhibition of DAPK2 (unknown origin) assessed as remaining activity at 1 uM by Kinome scan method relative to control.
Experiment [5] concerns the target Serine/threonine-protein kinase 32B (Homo sapiens) (UniProt Q9NY57). Kind of experiment: Inhibition of YANK2 (unknown origin) assessed as remaining activity at 1 uM by Kinome scan method relative to control.
The target in experiment [6] is T3, Ephrin type-A receptor 1 (Homo sapiens) (UniProt P21709).
T3 sequence (whole entry): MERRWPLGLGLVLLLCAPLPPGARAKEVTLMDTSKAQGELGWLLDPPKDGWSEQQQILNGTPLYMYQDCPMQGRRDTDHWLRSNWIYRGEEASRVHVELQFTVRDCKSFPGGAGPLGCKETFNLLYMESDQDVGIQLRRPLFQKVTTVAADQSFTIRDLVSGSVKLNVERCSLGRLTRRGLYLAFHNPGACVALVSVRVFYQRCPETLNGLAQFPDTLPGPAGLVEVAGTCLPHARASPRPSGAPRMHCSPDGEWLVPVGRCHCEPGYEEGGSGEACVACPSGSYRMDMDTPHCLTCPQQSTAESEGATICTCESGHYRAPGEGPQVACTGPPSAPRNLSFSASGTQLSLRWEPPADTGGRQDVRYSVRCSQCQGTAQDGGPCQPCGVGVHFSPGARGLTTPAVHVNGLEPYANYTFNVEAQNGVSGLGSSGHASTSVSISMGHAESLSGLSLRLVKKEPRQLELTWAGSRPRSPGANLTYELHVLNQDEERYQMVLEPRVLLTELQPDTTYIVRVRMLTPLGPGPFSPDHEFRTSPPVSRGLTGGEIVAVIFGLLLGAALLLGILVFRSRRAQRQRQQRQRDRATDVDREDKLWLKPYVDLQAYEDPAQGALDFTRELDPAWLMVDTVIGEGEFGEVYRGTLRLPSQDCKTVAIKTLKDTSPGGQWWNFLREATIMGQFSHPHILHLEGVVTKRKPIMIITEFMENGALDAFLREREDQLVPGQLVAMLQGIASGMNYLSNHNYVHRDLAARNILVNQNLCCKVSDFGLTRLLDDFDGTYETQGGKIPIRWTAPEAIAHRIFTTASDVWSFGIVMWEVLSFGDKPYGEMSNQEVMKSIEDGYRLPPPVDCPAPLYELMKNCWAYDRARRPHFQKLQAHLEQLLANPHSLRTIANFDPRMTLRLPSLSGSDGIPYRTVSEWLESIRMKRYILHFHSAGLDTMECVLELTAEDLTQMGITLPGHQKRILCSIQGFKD
Kind of experiment: Inhibition of EPHA1 (unknown origin) assessed as remaining activity at 1 uM by Kinome scan method relative to control.

Experiment [7] has as its system Tyrosine-protein kinase ABL1 (Homo sapiens), P00519 [E255K]. Kind of experiment: Inhibition of ABL1 E255K mutant (unknown origin) assessed as remaining activity at 1 uM by Kinome scan method relative to control.

Death-associated protein kinase 2 (Homo sapiens), sequence (Q9UIK4 whole entry, looked up): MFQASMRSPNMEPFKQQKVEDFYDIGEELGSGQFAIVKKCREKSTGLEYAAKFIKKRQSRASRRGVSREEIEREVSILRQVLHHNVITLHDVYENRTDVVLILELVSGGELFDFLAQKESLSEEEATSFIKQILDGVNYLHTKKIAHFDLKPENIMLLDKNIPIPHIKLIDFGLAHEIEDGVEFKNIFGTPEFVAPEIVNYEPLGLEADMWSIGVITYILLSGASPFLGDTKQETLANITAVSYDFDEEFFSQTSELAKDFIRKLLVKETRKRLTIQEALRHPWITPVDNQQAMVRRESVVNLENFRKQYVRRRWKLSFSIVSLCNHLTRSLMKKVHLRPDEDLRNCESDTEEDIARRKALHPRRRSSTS
Serine/threonine-protein kinase 32B (Homo sapiens), sequence (Q9NY57 whole entry): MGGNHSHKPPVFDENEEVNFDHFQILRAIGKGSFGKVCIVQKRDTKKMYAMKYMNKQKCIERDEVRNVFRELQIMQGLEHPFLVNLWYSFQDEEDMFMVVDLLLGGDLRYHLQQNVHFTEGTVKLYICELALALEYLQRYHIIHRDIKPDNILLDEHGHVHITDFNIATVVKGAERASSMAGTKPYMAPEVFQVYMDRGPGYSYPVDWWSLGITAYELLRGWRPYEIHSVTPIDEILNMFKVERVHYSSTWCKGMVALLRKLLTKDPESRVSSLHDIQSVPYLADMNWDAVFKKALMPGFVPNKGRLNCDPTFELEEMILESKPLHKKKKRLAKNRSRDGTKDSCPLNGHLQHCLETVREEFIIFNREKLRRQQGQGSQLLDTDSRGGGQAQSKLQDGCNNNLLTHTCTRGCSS
Tyrosine-protein kinase ABL1 (Homo sapiens), P00519 [E255K], sequence (P00519 whole entry E255K): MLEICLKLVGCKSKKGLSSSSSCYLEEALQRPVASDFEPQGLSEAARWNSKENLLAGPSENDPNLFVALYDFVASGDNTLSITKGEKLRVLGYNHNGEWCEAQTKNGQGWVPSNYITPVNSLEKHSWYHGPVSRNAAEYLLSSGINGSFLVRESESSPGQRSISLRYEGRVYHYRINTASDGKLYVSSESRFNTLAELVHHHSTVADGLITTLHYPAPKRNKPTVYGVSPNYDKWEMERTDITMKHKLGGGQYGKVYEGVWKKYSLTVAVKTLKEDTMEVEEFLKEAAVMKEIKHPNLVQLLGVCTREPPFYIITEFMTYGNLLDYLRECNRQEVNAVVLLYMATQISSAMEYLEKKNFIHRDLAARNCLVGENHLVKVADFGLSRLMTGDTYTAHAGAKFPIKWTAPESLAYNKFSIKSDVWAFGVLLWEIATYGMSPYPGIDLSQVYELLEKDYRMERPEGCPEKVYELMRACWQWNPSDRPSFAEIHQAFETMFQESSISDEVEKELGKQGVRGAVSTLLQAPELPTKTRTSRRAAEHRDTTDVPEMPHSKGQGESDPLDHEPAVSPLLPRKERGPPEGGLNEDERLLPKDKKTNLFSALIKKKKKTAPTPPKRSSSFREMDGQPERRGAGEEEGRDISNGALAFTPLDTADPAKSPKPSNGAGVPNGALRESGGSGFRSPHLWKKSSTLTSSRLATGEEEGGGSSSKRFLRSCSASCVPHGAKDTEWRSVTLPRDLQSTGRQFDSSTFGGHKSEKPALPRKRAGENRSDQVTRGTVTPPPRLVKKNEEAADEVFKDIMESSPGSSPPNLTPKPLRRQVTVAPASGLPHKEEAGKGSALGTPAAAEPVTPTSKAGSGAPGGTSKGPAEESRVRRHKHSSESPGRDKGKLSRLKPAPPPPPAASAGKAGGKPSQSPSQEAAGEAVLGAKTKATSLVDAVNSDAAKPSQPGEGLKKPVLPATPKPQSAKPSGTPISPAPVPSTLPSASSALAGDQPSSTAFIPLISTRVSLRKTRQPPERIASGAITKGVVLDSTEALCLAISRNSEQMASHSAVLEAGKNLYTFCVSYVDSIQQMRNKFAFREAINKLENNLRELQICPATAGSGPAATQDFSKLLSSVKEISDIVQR
Macrophage-stimulating protein receptor (Homo sapiens), sequence (Q04912 25-304 limits assumed): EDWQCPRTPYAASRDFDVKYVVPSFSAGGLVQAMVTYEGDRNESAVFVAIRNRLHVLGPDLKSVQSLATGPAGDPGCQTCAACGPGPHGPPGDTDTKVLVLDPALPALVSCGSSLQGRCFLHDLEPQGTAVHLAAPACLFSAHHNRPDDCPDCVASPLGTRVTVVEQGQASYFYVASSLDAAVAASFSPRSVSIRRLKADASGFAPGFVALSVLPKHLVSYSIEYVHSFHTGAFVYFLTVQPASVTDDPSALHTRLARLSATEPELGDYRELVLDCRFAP
Macrophage-stimulating protein receptor (Homo sapiens), sequence (Q04912 310-1400 limits assumed): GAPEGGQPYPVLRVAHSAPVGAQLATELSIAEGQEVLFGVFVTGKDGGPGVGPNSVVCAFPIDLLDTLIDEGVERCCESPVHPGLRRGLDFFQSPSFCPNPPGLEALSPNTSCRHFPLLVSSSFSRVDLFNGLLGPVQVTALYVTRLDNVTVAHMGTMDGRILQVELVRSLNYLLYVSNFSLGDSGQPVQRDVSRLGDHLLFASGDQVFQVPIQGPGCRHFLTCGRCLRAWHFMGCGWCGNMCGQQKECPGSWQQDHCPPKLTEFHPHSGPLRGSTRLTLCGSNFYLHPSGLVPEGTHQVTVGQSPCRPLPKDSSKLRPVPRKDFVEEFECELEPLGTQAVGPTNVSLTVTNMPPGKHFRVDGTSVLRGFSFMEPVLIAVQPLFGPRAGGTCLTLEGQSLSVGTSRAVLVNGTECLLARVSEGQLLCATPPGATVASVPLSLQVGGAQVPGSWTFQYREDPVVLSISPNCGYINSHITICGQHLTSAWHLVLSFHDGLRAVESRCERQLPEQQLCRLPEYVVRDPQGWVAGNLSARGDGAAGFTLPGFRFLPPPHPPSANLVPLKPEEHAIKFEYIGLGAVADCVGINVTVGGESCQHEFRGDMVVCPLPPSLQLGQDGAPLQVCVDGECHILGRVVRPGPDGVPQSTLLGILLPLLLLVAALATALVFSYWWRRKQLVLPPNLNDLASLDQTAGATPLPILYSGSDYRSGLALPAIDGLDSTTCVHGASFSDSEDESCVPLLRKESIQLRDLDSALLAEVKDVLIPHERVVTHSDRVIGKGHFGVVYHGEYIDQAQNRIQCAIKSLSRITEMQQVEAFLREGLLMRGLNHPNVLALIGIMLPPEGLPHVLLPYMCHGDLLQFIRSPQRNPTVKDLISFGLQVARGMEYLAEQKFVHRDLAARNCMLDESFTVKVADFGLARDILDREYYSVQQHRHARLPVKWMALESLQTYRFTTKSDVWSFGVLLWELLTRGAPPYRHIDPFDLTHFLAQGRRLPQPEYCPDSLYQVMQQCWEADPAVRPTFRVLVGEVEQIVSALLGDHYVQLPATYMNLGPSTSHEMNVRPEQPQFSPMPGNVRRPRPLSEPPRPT

Regarding `Nc1ccccc1Nc1ccc2c(c1)CCc1ccccc1C2=O`, the Activity came to 97% in experiment [1]; 98% in experiment [2]; 98% in experiment [3]; 99% in experiment [4]; 89% in experiment [5]; 98% in experiment [6]. The Activity in experiment [7] amounted to 81%.
As for `O=C1c2ccc(Nc3ccc(F)cc3F)cc2CCc2ccc(OC[C@H](O)CO)cc21` [Skepinone-L], the Activity is 79% in experiment [1]; 99% in experiment [2]; 100% in experiment [3]; 93% in experiment [4]; 98% in experiment [5]; 91% in experiment [6]. Besides, the Activity in experiment [7] turned out to be 96%.
